{"source": "patent US20250241893A1", "about": "“TREATMENT OF COGNITIVE DYSFUNCTION” (GH RESEARCH IRELAND LIMITED, priority 2022, published 2025)", "key": {"[1]": {"system": "Salmonella typhimurium (TA98, TA100, TA1535 and TA1537)", "experiment": "Bacterial mutation test in Salmonella typhimurium", "assay_type": "cell-based", "details": "up to 5000 μg/plate, absence and presence of rat liver S-9", "protocol": "These conditions included treatments at concentrations up to 5000 μg/plate (the maximum recommended concentration according to current regulatory guidelines), in the absence and in the presence of a rat liver metabolic activation system (S-9)."}, "[2]": {"experiment": "Pharmacokinetics of 5-MeO-DMT and bufotenine after inhalation", "assay_type": "in vivo, human", "details": "3 hours after inhalation, whole dose range (6 mg, 12 mg, 18 mg)", "protocol": "Blood samples were obtained at 1; 2; 4; 7; 10; 15; 20; 30; 45 min and 1; 1.5; 2; 3; 4 hours after administration. […] PK parameters were generated by algebraic analysis of the concentration versus time plots for each individual. The analysis was carried out using the software Phoenix WinNonlin 6.3."}, "[3]": {"system": "patients with postpartum depression (PPD)", "experiment": "Clinical trial of inhaled 5-MeO-DMT in postpartum depression", "details": "one PPD patient", "protocol": "The single-arm, open-label clinical trial will involve 15 adult female patients with clinically diagnosed postpartum depression (PPD).\nThe second dose (12 mg) will only be administered if: • a. A peak experience (total score of • 75) has not been achieved following the 6 mg dose, and • b. The 6 mg dose was safe and well-tolerated according to the investigator, • c. Any psychoactive effects (PsE) of the prior dose have subsided, and • d. Pre-dose vital parameters and forced expiratory volume in one second (FEV1) are in normal range, or if outside of the normal range, are not clinically significant according to the investigator. • 3. Similarly, a third dose (18 mg) will only be administered if: • a. A peak experience (total score of • 75) has not been achieved following the 12 mg dose, and • b. The 12 mg dose was safe and well-tolerated according to the investigator, and • c. Any PsE of the prior dose have subsided, and • d. Pre-dose vital parameters and forced expiratory volume in one second (FEV1) are in normal range, or if outside of the normal range, are not clinically significant according to the investigator.\nThe patients will be assessed for a peak psychedelic experience (based on a patient-scored visual analogue scale, the PE scale), sedation, and other endpoints after dosing.\nFollow-up visits are planned for Day 1, and Day 7 after the dosing day.\nThe following criteria must be met by all patients considered for clinical trial participation: • 1. Is female and in the age range between 18 and 45 years (inclusive) at screening. • 2. Has a body mass index (BMI) in the range of 18.5 and 35 kg/m^2 (inclusive) at screening. • 3. Meets the trial criteria for PPD as assessed by a trial psychiatrist or registered psychologist: • a. Diagnosis of Major Depressive Disorder without psychotic features, confirmed by the Mini-International Neuropsychiatric Interview (MINI), with peri-partum onset that began no earlier than gestation and no later than the first 4 weeks postpartum. • b. Has a Montgomery-Asberg Depression Rating Scale (MADRS) total score of equal to or greater than 28 at screening and pre-dose on Day 0. • 6. […] Patients must have a negative pregnancy test at screening and on the pre-test day (Day −1). • 5. Is willing to delay start of other antidepressant or anxiety medication until after the end of the trial at Day 7 and agrees to keep any psychotherapy unchanged during the trial.\nA potential patient who meets any of the following key exclusion criteria will be excluded from participation in this trial: • 1. Has, based on history, psychiatric assessment, and evaluation of the MINI, a current or prior diagnosis of bipolar disorder, a manic or hypomanic episode, a psychotic disorder, Major Depressive Disorder (MDD) or other mood disorder with psychotic features, obsessive compulsive disorder, post-traumatic stress disorder (PTSD), autism spectrum disorder, borderline personality disorder, schizophrenia, delusional disorder, paranoid personality disorder, schizoaffective disorder, clinically significant intellectual disability, or any other psychiatric comorbidity that renders the patient unsuitable for the trial according to the investigator's judgment. • 2. Has one or more first or second degree relatives with a current or previously diagnosed bipolar disorder, psychotic disorder or other mood disorder (including MDD) with psychotic features. • 3. Is in the judgement of a trial psychiatrist or registered psychologist, at significant risk for suicide based on history, psychiatric assessment, and evaluation of suicidal ideation and suicidal behaviour based on the Columbia-Suicide Severity Rating Scale (C-SSRS). • 4. Has taken anti-depressive medication within 14 days or 5 half-lives (whichever is longer) prior to dosing (exception: within the last 5 weeks in the case of fluoxetine). • 5."}}, "note": "Entries after “also recorded” stand apart in the source; their conditions may differ.", "data": [{"molecule": "COc1ccc2[nH]cc(CCN(C)C)c2c1", "note": "[5-MeO-DMT]", "values": [{"measurement": "Mutation induction", "setting": "[1]", "result": "did not induce mutation"}, {"measurement": "Detectability in the plasma", "setting": "[2]", "result": "no longer detectable"}, {"measurement": "ECG (3 hours), safety laboratory analyses (7 days), CADSS (3 hours, 1 day, 7 days)", "setting": "[3]", "result": "unremarkable"}, {"measurement": "MADRS remission (MADRS total score equal or less than 10)", "setting": "[3]", "result": "fulfilled"}, {"measurement": "MADRS response (at least 50% improvement from baseline)", "setting": "[3]", "result": "fulfilled"}, {"measurement": "Reported adverse events (cramping left abdominal pain and headache, Day 0)", "setting": "[3]", "result": "mild, short-lasting and resolved spontaneously"}, {"measurement": "Total MADRS improvement", "setting": "[3]; 2 hr, baseline 29", "result": 24}, {"measurement": "Total MADRS score", "setting": "[3]; 2 hr, baseline 29", "result": 5}, {"measurement": "MADRS Lassitude score", "setting": "[3]; Day 1, baseline 3", "result": 0}, {"measurement": "BPRS Tension improvement", "setting": "[3]; Day 1, baseline 6", "result": 5}, {"measurement": "Total MADRS improvement", "setting": "[3]; Day 1, baseline 29", "result": 29}, {"measurement": "Total MADRS score", "setting": "[3]; Day 1, baseline 29", "result": 0}, {"measurement": "BIMF item 16 (I worry about how other people judge me (as a mother)) score", "setting": "[3]; Day 7, Day 0 score 3", "result": 5}, {"measurement": "BIMF item 10 (I trust my own feelings (instincts) when taking care of my baby) score", "setting": "[3]; Day 7, Day 0 score 5", "result": 6}, {"measurement": "BIMF functional domain Adjustment score", "setting": "[3]; Day 7, Day 0 score 5, maximum possible 12", "result": 6}, {"measurement": "BIMF functional domain Self Care score", "setting": "[3]; Day 7, Day 0 score 9, maximum possible 18", "result": 13}, {"measurement": "BIMF functional domain Infant Care score", "setting": "[3]; Day 7, Day 0 score 12, maximum possible 12", "result": 12}, {"measurement": "BIMF functional domain Mother-Child Interaction score", "setting": "[3]; Day 7, Day 0 score 15, maximum possible 18", "result": 17}, {"measurement": "BIMF functional domain Social Support score", "setting": "[3]; Day 7, Day 0 score 17, maximum possible 18", "result": 18}, {"measurement": "BIMF functional domain Management score", "setting": "[3]; Day 7, Day 0 score 28, maximum possible 36", "result": 33}, {"measurement": "BIMF functional domain Psychological Well-being score", "setting": "[3]; Day 7, Day 0 score 44, maximum possible 60", "result": 53}, {"measurement": "Total MADRS improvement", "setting": "[3]; Day 7, baseline 29", "result": 28}, {"measurement": "Total MADRS score", "setting": "[3]; Day 7, baseline 29", "result": 1}, {"measurement": "BIMF total score percentage improvement", "setting": "[3]; Day 7, from 92 to 105 (possible total 120)", "result": 14, "unit": "%"}, {"measurement": "BIMF TOTAL Δ (Day 7)", "setting": "[3]; Day 7 vs Day 0", "result": 13}, {"measurement": "BIMF functional domain Adjustment % improvement", "setting": "[3]; Day 7 vs Day 0", "result": 20.00, "unit": "%"}, {"measurement": "BIMF functional domain Infant Care % improvement", "setting": "[3]; Day 7 vs Day 0", "result": 0.00, "unit": "%"}, {"measurement": "BIMF functional domain Management % improvement", "setting": "[3]; Day 7 vs Day 0", "result": 18, "unit": "%"}, {"measurement": "BIMF functional domain Self Care % improvement", "setting": "[3]; Day 7 vs Day 0", "result": 44, "unit": "%"}, {"measurement": "Time to clinical remission after administration", "setting": "[3]; IDR", "result": "≤ 2", "unit": "h"}, {"measurement": "Tolerability of inhaled 5-MeO-DMT", "setting": "[3]; IDR 6 mg then 12 mg", "result": "well tolerated with no inhalation-related adverse events; also recorded: well tolerated"}, {"measurement": "BPRS Tension improvement", "setting": "[3]; discharge, baseline 6", "result": 5}, {"measurement": "Changes in vital parameters", "setting": "[3]; shortly after administration", "result": "temporary, clinically non-relevant increase in heart rate and blood pressure"}]}]}
